Assay results as given in publication PMC5339874, “Fluorene-9-bisphenol is anti-oestrogenic and may cause adverse pregnancy outcomes in mice” (Nature Communications, 2017).

How the values were obtained:
CD-1 mice = assay: Global gene expression microarray of livers, ovaries and uteri; format: in vivo
Method: The uteri, ovaries and livers were collected for total RNA isolation. Total RNA was isolated using Trizol reagent (Invitrogen) and further purified by NucleoSpin RNA Clean-up (Macherey-Nagel, Germany). Fluorescence labelling of the RNA samples was performed with a Jingxin cRNA linear amplification and labelling kit (CapitalBio) according to the manufacturer's instructions. The total RNA from each pool of tissue samples (a mixture from three animals) was used for microarray analysis. Cy3 dCTP was used to label the samples. The labelled products were added to SurePrint G3 mouse gene expression 8 × 60 K microarrays (Agilent) and incubated overnight at 42 °C. Following hybridization, the gene arrays were washed and scanned using an Agilent G2565CA Microarray Scanner. Glyceraldehyde 3-phosphate dehydrogenase (GAPDH) was used as an endogenous control to monitor the quality of the target preparation. The data were processed with feature extraction software (GeneSpring GX v.11; Agilent). The raw signals were log-transformed and normalized with the percentile shift normalization method. All arrays met the minimum Agilent QA/QC standards. To verify the data from the gene array, 14 genes were chosen as candidates for Q-RT-PCR. Primers are listed in Supplementary Table 4. GAPDH was used as an endogenous control. Amplification was performed using SYBR Green PCR master mix (Applied Biosystems) according to the manufacturer's instructions. The relative expression was quantified using the 2^(−ΔΔCt) method. The Gene Ontology (GO) and KEGG pathway enrichment analyses were performed with DAVID (refs [40], [41]).

[1] = Serum BHPF levels in mice after drinking-water exposure (GC–MS); format: in vivo; conditions: for concentration at 10 days: female, CD-1, mouse, serum, oral, 124.35 ng l^−1 in drinking water
From the text: In China, college students usually undergo a physical examination before graduation. The volunteers in this study were senior students who were undergoing a physical examination in Beijing. Fifty male and 50 female healthy volunteers (mean age, 23.5±1.2 years) who habitually used plastic water bottles were randomly recruited to participate in this study in June 2015, after appropriate ethical approval was received from the Human Ethics Committee of the Peking University Peoples' Hospital. Each participant provided informed consent and volunteered to give one 10-ml random sample of blood. Fasting blood was collected at Peking University Hospital Medical Center with vacutainer blood collection device (Chengwu Yongkang Medical Products Ltd., China) between 8 and 9 h. […] The blood was collected directly into plain 10-ml glass vacutainer tubes and spun down 30 min later for serum preparation. The serum samples were stored in glass tubes at −80 °C until analysis. The samples were fortified with 5 ng of surrogate standard BHPF-d7, and the pH was adjusted to 6.5 with ammonium acetate. β-Glucuronidase/arylsulfatase (20 μl; Sigma-Aldrich, St Louis, MO) was added to the samples, and they were incubated at 37 °C for 20 h to allow deglucuronidation. […]
Mice with a maximal difference in body weight of 1 g were selected for the experiments and randomly assigned to either the treatment or control groups. […] The BHPF levels in the cooled boiled waters from Bottle A, Bottle B and the stainless steel electric water heater were determined by GC–MS. No BHPF was detected in the cooled boiled water from the stainless steel electric water heater. […] The relative uterine weight was calculated to evaluate the anti-uterotrophic activity. […] The serum BHPF levels were analysed by GC–MS using the same method as that for human serum. The gene expressions of sprr2a and sprr2b in the uteri were determined by Q-RT-PCR.

[2] = 50 mg/kg bw/d BHPF, 3 days, endogenous control
[3] = liver, 50 mg kg^−1 bw d^−1, 3 days
[4] = ovaries, 50 mg kg^−1 bw d^−1, 3 days
[5] = uteri, 50 mg kg^−1 bw d^−1, 3 days

Oc1ccc(C2(c3ccc(O)cc3)c3ccccc3-c3ccccc32)cc1 [BHPF, 9,9-bis(4-hydroxyphenyl)-fluorene]
genes involved in biotransformation and oxidation-reduction processes (CD-1 mice; 50 mg kg^−1 bw d^−1, 3 days): up-regulated in the uterus but not in the liver | Actb gene expression change, liver, Microarray (CD-1 mice; 50 mg/kg bw/d BHPF, 3 days): 1.09 | Actb gene expression change, ovary, Microarray (CD-1 mice; 50 mg/kg bw/d BHPF, 3 days): 1.34 | Actb gene expression change, uterus, Microarray (CD-1 mice; 50 mg/kg bw/d BHPF, 3 days): 1.07 | Cfd gene expression change, liver, Microarray (CD-1 mice; 50 mg/kg bw/d BHPF, 3 days): -3.11 | Cfd gene expression change, ovary, Microarray (CD-1 mice; 50 mg/kg bw/d BHPF, 3 days): 4.13 | Cfd gene expression change, uterus, Microarray (CD-1 mice; 50 mg/kg bw/d BHPF, 3 days): -6.54 | Orm1 gene expression change, liver, Microarray (CD-1 mice; 50 mg/kg bw/d BHPF, 3 days): -1.65 | Orm1 gene expression change, ovary, Microarray (CD-1 mice; 50 mg/kg bw/d BHPF, 3 days): 1.18 | Orm1 gene expression change, uterus, Microarray (CD-1 mice; 50 mg/kg bw/d BHPF, 3 days): 23.12 | Spp1 gene expression change, liver, Microarray (CD-1 mice; 50 mg/kg bw/d BHPF, 3 days): -1.30 | Spp1 gene expression change, ovary, Microarray (CD-1 mice; 50 mg/kg bw/d BHPF, 3 days): -1.67 | Spp1 gene expression change, uterus, Microarray (CD-1 mice; 50 mg/kg bw/d BHPF, 3 days): 2.57 | Sprr1a gene expression change, liver, Microarray (CD-1 mice; 50 mg/kg bw/d BHPF, 3 days): 2.17 | Sprr1a gene expression change, ovary, Microarray (CD-1 mice; 50 mg/kg bw/d BHPF, 3 days): 1.17 | Sprr1a gene expression change, uterus, Microarray (CD-1 mice; 50 mg/kg bw/d BHPF, 3 days): -3.44 | Sprr2a2 gene expression change, liver, Microarray (CD-1 mice; 50 mg/kg bw/d BHPF, 3 days): 2.10 | Sprr2a2 gene expression change, ovary, Microarray (CD-1 mice; 50 mg/kg bw/d BHPF, 3 days): -12.01 | Sprr2a2 gene expression change, uterus, Microarray (CD-1 mice; 50 mg/kg bw/d BHPF, 3 days): -5.24 | Sprr2b gene expression change, liver, Microarray (CD-1 mice; 50 mg/kg bw/d BHPF, 3 days): 2.75 | Sprr2b gene expression change, ovary, Microarray (CD-1 mice; 50 mg/kg bw/d BHPF, 3 days): -2.07 | Sprr2b gene expression change, uterus, Microarray (CD-1 mice; 50 mg/kg bw/d BHPF, 3 days): -13.20 | Sprr2f gene expression change, liver, Microarray (CD-1 mice; 50 mg/kg bw/d BHPF, 3 days): 3.69 | Sprr2f gene expression change, ovary, Microarray (CD-1 mice; 50 mg/kg bw/d BHPF, 3 days): -5.81 | Sprr2f gene expression change, uterus, Microarray (CD-1 mice; 50 mg/kg bw/d BHPF, 3 days): -2.52 | Sprr2g gene expression change, liver, Microarray (CD-1 mice; 50 mg/kg bw/d BHPF, 3 days): 2.09 | Sprr2g gene expression change, ovary, Microarray (CD-1 mice; 50 mg/kg bw/d BHPF, 3 days): -5.71 | Sprr2g gene expression change, uterus, Microarray (CD-1 mice; 50 mg/kg bw/d BHPF, 3 days): -2.13 | chil3 gene expression change, liver, Microarray (CD-1 mice; 50 mg/kg bw/d BHPF, 3 days): -8.53 | chil3 gene expression change, ovary, Microarray (CD-1 mice; 50 mg/kg bw/d BHPF, 3 days): -9.16 | chil3 gene expression change, uterus, Microarray (CD-1 mice; 50 mg/kg bw/d BHPF, 3 days): -6.60 | cyp2e1 gene expression change, liver, Microarray (CD-1 mice; 50 mg/kg bw/d BHPF, 3 days): -1.01 | cyp2e1 gene expression change, ovary, Microarray (CD-1 mice; 50 mg/kg bw/d BHPF, 3 days): 1.25 | cyp2e1 gene expression change, uterus, Microarray (CD-1 mice; 50 mg/kg bw/d BHPF, 3 days): 5.02 | ll1f6 gene expression change, liver, Microarray (CD-1 mice; 50 mg/kg bw/d BHPF, 3 days): 1.95 | ll1f6 gene expression change, ovary, Microarray (CD-1 mice; 50 mg/kg bw/d BHPF, 3 days): -1.11 | ll1f6 gene expression change, uterus, Microarray (CD-1 mice; 50 mg/kg bw/d BHPF, 3 days): -10.96 | serp1d gene expression change, liver, Microarray (CD-1 mice; 50 mg/kg bw/d BHPF, 3 days): 1.02 | serp1d gene expression change, ovary, Microarray (CD-1 mice; 50 mg/kg bw/d BHPF, 3 days): 1.13 | serp1d gene expression change, uterus, Microarray (CD-1 mice; 50 mg/kg bw/d BHPF, 3 days): 17.78 | GAPDH gene expression change, liver, Microarray (CD-1 mice; [2]): 1.02 | GAPDH gene expression change, ovary, Microarray (CD-1 mice; [2]): 1.03 | GAPDH gene expression change, uterus, Microarray (CD-1 mice; [2]): -1.02 | share of modified genes down-regulated (CD-1 mice; [3]): 22.3% | share of modified genes up-regulated (CD-1 mice; [3]): 77.7% | expression of sprr2a, sprr2b, sprr2f and sprr2g (response to E2 stimuli) (CD-1 mice; [4]): down-regulated | share of modified genes down-regulated (CD-1 mice; [4]): 65.5% | share of modified genes up-regulated (CD-1 mice; [4]): 34.5% | expression pattern of oestrogen-responsive genes compared with that induced by E2 (CD-1 mice; [5]): opposite expression pattern | share of modified genes down-regulated (CD-1 mice; [5]): 43.4% | share of modified genes up-regulated (CD-1 mice; [5]): 56.6% | serum BHPF ([1]; 100 ng l^−1 BHPF group, 10 days): no serum BHPF was detected | concentration at 10 days ([1]; serum BHPF level (mean), Bottle A group (124.35 ng l^−1 BHPF in water), after enzymatic hydrolysis): 1.21 ± 1.11 ng/mL | concentration at 10 days ([1]; serum BHPF levels, range, Bottle A group): 0.36 to 2.7 ng/mL
